Several values for one entry are separate records, joined by “and”; a condition that tells them apart may be missing. Equal values may be shown once. Toxic doses and inconclusive results are not listed.
System: BDF1 mice, P388 leukemia ip, median survival T/C
Experiment: NCI In Vivo Anticancer Drug Screen. Data for tumor model P388 Leukemia (intraperitoneal) in B6D2F1 (BDF1) mice
Settings: endpoint: median survival time, higher = longer survival
Outline: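 Vehicle-dosed animals serve as the reference; survival of compound-dosed, tumour-implanted mice is divided by it.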

[1] = dose: 50.0 mg/kg/injection, schedule: Q01DX009 (ip), vehicle: saline with Tween-80
[2] = dose: 100.0 mg/kg/injection, schedule: Q01DX009 (ip), vehicle: Klucel (hydroxypropylcellulose) (HPC)
[3] = dose: 100.0 mg/kg/injection, schedule: Q01DX009 (ip), vehicle: saline with Tween-80
[4] = dose: 200.0 mg/kg/injection, schedule: Q01DX009 (ip), vehicle: Klucel (hydroxypropylcellulose) (HPC)
[5] = dose: 200.0 mg/kg/injection, schedule: Q01DX009 (ip), vehicle: saline with Tween-80
[6] = dose: 100.0 mg/kg/injection, schedule: Q01DX009 (ip), vehicle: saline
[7] = dose: 200.0 mg/kg/injection, schedule: Q01DX009 (ip), vehicle: saline
[8] = dose: 6.25 mg/kg/injection, schedule: Q01DX009 (ip), vehicle: saline
[9] = dose: 200.0 mg/kg/injection, schedule: Q04DX003 (ip), vehicle: saline with Tween-80
[10] = dose: 100.0 mg/kg/injection, schedule: Q04DX003 (ip), vehicle: Klucel (hydroxypropylcellulose) (HPC)
[11] = dose: 200.0 mg/kg/injection, schedule: Q04DX003 (ip), vehicle: Klucel (hydroxypropylcellulose) (HPC)
[12] = dose: 400.0 mg/kg/injection, schedule: Q04DX003 (ip), vehicle: Klucel (hydroxypropylcellulose) (HPC)

For `COc1ccc(/C=C2\CCC3C(CCCC34OCCO4)C2=O)cc1` (stereo unspecified), the T/C (dose: 45.0 mg/kg/injection, schedule: Q01DX009 (ip), vehicle: Klucel (hydroxypropylcellulose) (HPC)) was 104 % of control, the T/C [1] was 100 % of control and the T/C (dose: 65.0 mg/kg/injection, schedule: Q01DX009 (ip), vehicle: Klucel (hydroxypropylcellulose) (HPC)) was 95 % of control. For the same compound, the T/C [2] was 118 % of control, the T/C [3] was 104 % of control and the T/C (dose: 100.0 mg/kg/injection, schedule: Q04DX003 (ip), vehicle: other) was 91 % of control. For the same compound, the T/C (dose: 150.0 mg/kg/injection, schedule: Q01DX009 (ip), vehicle: Klucel (hydroxypropylcellulose) (HPC)) was 90 % of control, the T/C [4] was 100 % of control and the T/C [5] was 96 % of control. The T/C (dose: 200.0 mg/kg/injection, schedule: Q04DX003 (ip), vehicle: other) was 108 % of control, the T/C (dose: 400.0 mg/kg/injection, schedule: Q01DX009 (ip), vehicle: Klucel (hydroxypropylcellulose) (HPC)) was 95 % of control and the T/C (dose: 400.0 mg/kg/injection, schedule: Q04DX003 (ip), vehicle: other) was 95 % of control.

For `Cc1ccc(N2CCN(C3=CCC(C(C)C)CC3)CC2)cc1Cl` (stereo unspecified), the T/C (dose: 100.0 mg/kg/injection, schedule: Q01DX001 (ip), vehicle: saline with Tween-80) was 105 % of control and the T/C (dose: 200.0 mg/kg/injection, schedule: Q01DX001 (ip), vehicle: saline with Tween-80) was 105 % of control.

For `O=C(C=C(C(F)(F)F)C(F)(F)F)c1ccccc1Cl`, the T/C (dose: 11.0 mg/kg/injection, schedule: Q01DX009 (ip), vehicle: saline with Tween-80) was 109 % of control, the T/C (dose: 16.5 mg/kg/injection, schedule: Q01DX009 (ip), vehicle: saline with Tween-80) was 118 % of control and the T/C (dose: 25.0 mg/kg/injection, schedule: Q01DX009 (ip), vehicle: saline with Tween-80) was 118 % of control.

`C1=C(c2ccccc2)OC(c2ccccc2)C1c1ccccc1` (stereo unspecified) was tested, and the T/C (dose: 25.0 mg/kg/injection, schedule: Q01DX005 (ip), vehicle: saline with Tween-80) was 94 % of control and the T/C (dose: 50.0 mg/kg/injection, schedule: Q01DX005 (ip), vehicle: saline with Tween-80) was 94 % of control.

In the case of `Cc1nc(N)[nH]c(=O)c1CCCNc1cccc(C(F)(F)F)c1`, the T/C (dose: 100.0 mg/kg/injection, schedule: Q01DX001 (ip), vehicle: Klucel (hydroxypropylcellulose) (HPC)) is reported as 100 % of control, the T/C (dose: 200.0 mg/kg/injection, schedule: Q01DX001 (ip), vehicle: Klucel (hydroxypropylcellulose) (HPC)) is reported as 104 % of control and the T/C (dose: 400.0 mg/kg/injection, schedule: Q01DX001 (ip), vehicle: Klucel (hydroxypropylcellulose) (HPC)) is reported as 104 % of control.

In the case of `CC(=O)c1ccc[n+](C)c1`, the T/C [6] is reported as 100 % of control and the T/C [7] is reported as 95 % of control.

`Cc1cccc(CSc2nc(N)nc3ncn(C4CC(O)C(CO)O4)c23)n1` (stereo unspecified) was tested, and the T/C [6] was 103 % of control, the T/C (dose: 100.0 mg/kg/injection, schedule: Q04DX003 (ip), vehicle: saline) was 100 % of control and the T/C [7] was 97 % of control. The T/C (dose: 200.0 mg/kg/injection, schedule: Q04DX003 (ip), vehicle: saline) was 104 % of control, the T/C (dose: 400.0 mg/kg/injection, schedule: Q01DX009 (ip), vehicle: saline) was 103 % of control and the T/C (dose: 400.0 mg/kg/injection, schedule: Q04DX003 (ip), vehicle: saline) was 100 % of control.

For `O=[N+]([O-])c1ccc(N2CCOCC2)c2c1no[n+]2[O-]`, the T/C [8] was 95 % of control, the T/C (dose: 12.5 mg/kg/injection, schedule: Q01DX009 (ip), vehicle: saline) was 100 % of control and the T/C (dose: 25.0 mg/kg/injection, schedule: Q01DX009 (ip), vehicle: saline) was 108 % of control. For the same compound, the T/C (dose: 32.0 mg/kg/injection, schedule: Q04DX003 (ip), vehicle: saline with Tween-80) was 150 % of control and the T/C (dose: 64.0 mg/kg/injection, schedule: Q04DX003 (ip), vehicle: saline with Tween-80) was 160 % of control.

For `CC(=O)OCC1OC(n2cnc3c(=S)nc(N)[nH]c32)C(OC(C)=O)C1OC(C)=O` (stereo unspecified), the T/C (dose: 3.5 mg/kg/injection, schedule: Q01DX009 (ip), vehicle: saline with Tween-80) was 113 % of control, the T/C (dose: 5.2 mg/kg/injection, schedule: Q01DX009 (ip), vehicle: saline with Tween-80) was 122 % of control and the T/C (dose: 12.0 mg/kg/injection, schedule: Q01DX009 (ip), vehicle: saline with Tween-80) was 90 % of control. The T/C (dose: 18.0 mg/kg/injection, schedule: Q01DX009 (ip), vehicle: saline with Tween-80) was 100 % of control, the T/C (dose: 26.0 mg/kg/injection, schedule: Q01DX009 (ip), vehicle: saline with Tween-80) was 90 % of control and the T/C (dose: 40.0 mg/kg/injection, schedule: Q01DX009 (ip), vehicle: saline with Tween-80) was 90 % of control. The T/C [1] was 90 % of control, the T/C (dose: 132.0 mg/kg/injection, schedule: Q04DX003 (ip), vehicle: saline with Tween-80) was 100 % of control and the T/C [9] was 166 % of control.

`CCOC(=O)CNC(=O)C(CSSCC(NC(=O)OCc1ccccc1)C(=O)NCC(=O)OCC)NC(=O)OCc1ccccc1` (stereo unspecified) was tested, and the T/C [10] was 118 % of control, the T/C [11] was 86 % of control and the T/C [12] was 109 % of control.

For `CCOC(=O)C/C(C)=N\NC(=O)c1ccncc1`, the T/C (dose: 75.0 mg/kg/injection, schedule: Q01DX009 (ip), vehicle: saline with Tween-80) was 88 % of control and the T/C (dose: 150.0 mg/kg/injection, schedule: Q01DX009 (ip), vehicle: saline with Tween-80) was 102 % of control.

For `NC(=O)N(CCCl)N=O`, the T/C (dose: 0.25 mg/kg/injection, schedule: Q01DX010 (ip), vehicle: saline) was 190 % of control, the T/C (dose: 0.5 mg/kg/injection, schedule: Q01DX010 (ip), vehicle: saline) was 209 % of control and 213 % of control and the T/C (dose: 1.0 mg/kg/injection, schedule: Q01DX010 (ip), vehicle: saline) was 290 % of control and 300 % of control. The T/C (dose: 1.25 mg/kg/injection, schedule: Q01DX010 (ip), vehicle: saline) was 272 % of control and 168 % of control, the T/C (dose: 2.0 mg/kg/injection, schedule: Q01DX010 (ip), vehicle: saline) was 277 % of control and the T/C (dose: 2.5 mg/kg/injection, schedule: Q01DX010 (ip), vehicle: saline) was 118 % of control and 209 % of control. The T/C (dose: 4.0 mg/kg/injection, schedule: Q01DX010 (ip), vehicle: saline) was 90 % of control.

`CCOC(=O)CCc1nn(C)c2ccc(CC)cc2c1=O` was tested, and the T/C [1] was 101 % of control, the T/C [3] was 92 % of control and the T/C [5] was 90 % of control.

For `C/C=C/C(=O)OCCC[N+](C)(C)C`, the T/C (dose: 0.09 mg/kg/injection, schedule: Q01DX009 (ip), vehicle: saline) was 95 % of control, the T/C (dose: 0.19 mg/kg/injection, schedule: Q01DX009 (ip), vehicle: saline) was 92 % of control and the T/C (dose: 0.39 mg/kg/injection, schedule: Q01DX009 (ip), vehicle: saline) was 96 % of control and 109 % of control. For the same compound, the T/C (dose: 0.78 mg/kg/injection, schedule: Q01DX009 (ip), vehicle: saline) was 96 % of control and 101 % of control, the T/C (dose: 1.56 mg/kg/injection, schedule: Q01DX009 (ip), vehicle: saline) was 96 % of control and 111 % of control and the T/C (dose: 3.12 mg/kg/injection, schedule: Q01DX009 (ip), vehicle: saline) was 100 % of control and 105 % of control. The T/C [8] was 92 % of control.

`CCOC(=O)C(NC(=O)OCc1ccccc1)(OCc1ccccc1)C(C)C` (stereo unspecified) was tested, and the T/C (dose: 100.0 mg/kg/injection, schedule: Q04DX003 (ip), vehicle: saline with Tween-80) was 97 % of control, the T/C [9] was 105 % of control and the T/C (dose: 400.0 mg/kg/injection, schedule: Q04DX003 (ip), vehicle: saline with Tween-80) was 94 % of control.

With `CCC(c1ccc(OC)cc1)C(NCC(=O)N/N=C/c1ccccc1[N+](=O)[O-])c1ccc(OC)cc1` (stereo unspecified) the T/C (dose: 12.5 mg/kg/injection, schedule: Q01DX001 (ip), vehicle: saline with Tween-80) was 91 % of control.

In the case of `O=[Se](=O)(c1ccccc1)c1ccccc1`, the T/C (dose: 100.0 mg/kg/injection, schedule: Q04DX002 (ip), vehicle: saline with Tween-80) is reported as 97 % of control, the T/C (dose: 200.0 mg/kg/injection, schedule: Q04DX002 (ip), vehicle: saline with Tween-80) is reported as 103 % of control and the T/C (dose: 400.0 mg/kg/injection, schedule: Q04DX002 (ip), vehicle: saline with Tween-80) is reported as 94 % of control.

`C[C@]12CC[C@@H]3c4ccc(O)cc4CC[C@H]3[C@@H]1CCC(=O)O2` was tested, and the T/C [2] was 91 % of control, the T/C [10] was 104 % of control and the T/C [4] was 91 % of control. The T/C [11] was 90 % of control and the T/C [12] was 100 % of control.

In the case of `Cc1nc2ccccc2nc1CC(O)(c1ccccc1)c1cccc2ccccc12` (stereo unspecified), the T/C [1] is reported as 94 % of control, the T/C [3] is reported as 95 % of control and the T/C [5] is reported as 97 % of control.

— PubChem BioAssay AID328 (DTP/NCI, 2004)
